# Test results as given in ChEMBL document CHEMBL3232857, “Selective and potent morpholinone inhibitors of the MDM2-p53 protein-protein interaction” (J Med Chem, 2014).
# What was measured:
# Hepatocyte [1] = test: (§1) Intrinsic clearance in human hepatocytes measured per 10^6 cells; format: ADME, cell-based
# Hepatocyte [2] = test: (§2) Intrinsic clearance in rat hepatocytes measured per 10^6 cells; format: ADME, cell-based
# Hepatocyte [3] = test: (§3) Intrinsic clearance in mouse hepatocytes measured per 10^6 cells; format: ADME, cell-based
# [4] = Intrinsic clearance in dog hepatocytes measured per 10^6 cells; format: ADME, cell-based, Canis lupus familiaris, Hepatocyte
# [5] = as §1; format: ADME, cell-based, Hepatocyte; conditions: read-out: CLH
# [6] = Clearance in rat at 0.5 mg/kg, iv; format: ADME, organism-based; design: dose 0.5 mg/kg, route intravenous; conditions: in vivo
# [7] = Half life in rat at 0.5 mg/kg, iv; format: ADME, organism-based; design: dose 0.5 mg/kg, route intravenous; conditions: in vivo
# [8] = as §2; format: ADME, cell-based, Hepatocyte; conditions: read-out: CLH
# [9] = as §3; format: ADME, cell-based, Hepatocyte; conditions: read-out: CLH
# [10] = (§4) Drug metabolism in mouse hepatocytes assessed as (2S,3S,4S,5R,6S)-6-(2-((2R,5R,6R)-4-((S)-2-(tert-butylsulfonyl)-1-cyclopropylethyl)-6-(3-chlorophenyl)-5-(4-chlorophenyl)-3-oxomorpholin-2-yl)acetoxy)-3,4,5-trihydroxytetrahydro-2H-pyran-2-carboxylic acid formation at 10 uM by LC-MS/MS analysis; format: ADME, cell-based, Hepatocyte
# [11] = Drug metabolism in rat hepatocytes assessed as (2S,3S,4S,5R,6S)-6-(2-((2R,5R,6R)-4-((S)-2-(tert-butylsulfonyl)-1-cyclopropylethyl)-6-(3-chlorophenyl)-5-(4-chlorophenyl)-3-oxomorpholin-2-yl)acetoxy)-3,4,5-trihydroxytetrahydro-2H-pyran-2-carboxylic acid formation at 10 uM by LC-MS/MS analysis; format: ADME, cell-based, Hepatocyte
# [12] = Drug metabolism in dog hepatocytes assessed as (2S,3S,4S,5R,6S)-6-(2-((2R,5R,6R)-4-((S)-2-(tert-butylsulfonyl)-1-cyclopropylethyl)-6-(3-chlorophenyl)-5-(4-chlorophenyl)-3-oxomorpholin-2-yl)acetoxy)-3,4,5-trihydroxytetrahydro-2H-pyran-2-carboxylic acid formation at 10 uM by LC-MS/MS analysis; format: ADME, cell-based, Canis lupus familiaris, Hepatocyte
# [13] = as §4, with “cynomolgus monkey” for “mouse”; format: ADME, cell-based, Macaca fascicularis, Hepatocyte
# [14] = Drug metabolism in human hepatocytes assessed as (2S,3S,4S,5R,6S)-6-(2-((2R,5R,6R)-4-((S)-2-(tert-butylsulfonyl)-1-cyclopropylethyl)-6-(3-chlorophenyl)-5-(4-chlorophenyl)-3-oxomorpholin-2-yl)acetoxy)-3,4,5-trihydroxytetrahydro-2H-pyran-2-carboxylic acid formation at 10 uM by LC-MS/MS analysis; format: ADME, cell-based, Hepatocyte
# [15] = Drug metabolism in mouse hepatocytes assessed as 2-((2R,5R,6R)-6-(3-chlorophenyl)-5-(4-chlorophenyl)-4-((S)-1-cyclopropyl-2-(1-hydroxy-2-methylpropan-2-ylsulfonyl)ethyl)-3-oxomorpholin-2-yl)acetic acid formation at 10 uM by LC-MS/MS analysis; format: ADME, cell-based, Hepatocyte
# [16] = Drug metabolism in rat hepatocytes assessed as 2-((2R,5R,6R)-6-(3-chlorophenyl)-5-(4-chlorophenyl)-4-((S)-1-cyclopropyl-2-(1-hydroxy-2-methylpropan-2-ylsulfonyl)ethyl)-3-oxomorpholin-2-yl)acetic acid formation at 10 uM by LC-MS/MS analysis; format: ADME, cell-based, Hepatocyte
# [17] = Drug metabolism in dog hepatocytes assessed as 2-((2R,5R,6R)-6-(3-chlorophenyl)-5-(4-chlorophenyl)-4-((S)-1-cyclopropyl-2-(1-hydroxy-2-methylpropan-2-ylsulfonyl)ethyl)-3-oxomorpholin-2-yl)acetic acid formation at 10 uM by LC-MS/MS analysis; format: ADME, cell-based, Canis lupus familiaris, Hepatocyte
# [18] = Drug metabolism in cynomolgus monkey hepatocytes assessed as 2-((2R,5R,6R)-6-(3-chlorophenyl)-5-(4-chlorophenyl)-4-((S)-1-cyclopropyl-2-(1-hydroxy-2-methylpropan-2-ylsulfonyl)ethyl)-3-oxomorpholin-2-yl)acetic acid formation at 10 uM by LC-MS/MS analysis; format: ADME, cell-based, Macaca fascicularis, Hepatocyte
# [19] = Drug metabolism in human hepatocytes assessed as 2-((2R,5R,6R)-6-(3-chlorophenyl)-5-(4-chlorophenyl)-4-((S)-1-cyclopropyl-2-(1-hydroxy-2-methylpropan-2-ylsulfonyl)ethyl)-3-oxomorpholin-2-yl)acetic acid formation at 10 uM by LC-MS/MS analysis; format: ADME, cell-based, Hepatocyte
structure (smiles),measurement,setting,value
CC[C@@H](CS(=O)(=O)C(C)(C)C)N1C(=O)[C@@](C)(CC(=O)O)C[C@H](c2cccc(Cl)c2)[C@H]1c1ccc(Cl)cc1,hepatocyte CLint,Hepatocyte [1],15 µL/min/1e6 cells
same,hepatocyte CLint,Hepatocyte [2],6.7 µL/min/1e6 cells
same,hepatocyte CLint,Hepatocyte [3],18 µL/min/1e6 cells
same,hepatocyte CLint,[4],68 µL/min/1e6 cells
CC[C@@H](CN(c1ccccc1)S(=O)(=O)C1CC1)N1C(=O)[C@@H](CC(=O)O)O[C@H](c2cccc(Cl)c2)[C@H]1c1ccc(Cl)cc1,hepatocyte CLint,[5],3.3 µL/min/1e6 cells
CC[C@@H](CN(c1ccccc1F)S(=O)(=O)C1CC1)N1C(=O)[C@@H](CC(=O)O)O[C@H](c2cccc(Cl)c2)[C@H]1c1ccc(Cl)cc1,hepatocyte CLint,[5],< 0.1 µL/min/1e6 cells
CC[C@@H](CN(c1ccc(F)cc1)S(=O)(=O)C1CC1)N1C(=O)[C@@H](CC(=O)O)O[C@H](c2cccc(Cl)c2)[C@H]1c1ccc(Cl)cc1,hepatocyte CLint,[5],7 µL/min/1e6 cells
CC[C@@H](CN(c1ccc(F)cc1F)S(=O)(=O)C1CC1)N1C(=O)[C@@H](CC(=O)O)O[C@H](c2cccc(Cl)c2)[C@H]1c1ccc(Cl)cc1,hepatocyte CLint,[5],4.8 µL/min/1e6 cells
CC[C@@H](CN(c1ccccc1F)S(=O)(=O)C(C)C)N1C(=O)[C@@H](CC(=O)O)O[C@H](c2cccc(Cl)c2)[C@H]1c1ccc(Cl)cc1,hepatocyte CLint,[5],15 µL/min/1e6 cells
CC[C@@H](CN(c1ccccc1F)S(C)(=O)=O)N1C(=O)[C@@H](CC(=O)O)O[C@H](c2cccc(Cl)c2)[C@H]1c1ccc(Cl)cc1,hepatocyte CLint,[5],4.7 µL/min/1e6 cells
CC[C@@H](CS(=O)(=O)C(C)C)N1C(=O)[C@@H](CC(=O)O)O[C@H](c2cccc(Cl)c2)[C@H]1c1ccc(Cl)cc1,hepatocyte CLint,[5],2.1 µL/min/1e6 cells
CC[C@@H](CS(=O)(=O)C(C)(C)C)N1C(=O)[C@@H](CC(=O)O)O[C@H](c2cccc(Cl)c2)[C@H]1c1ccc(Cl)cc1,hepatocyte CLint,[5],1.9 µL/min/1e6 cells
same,hepatocyte CLint,Hepatocyte [2],1.8 µL/min/1e6 cells
same,hepatocyte CLint,Hepatocyte [3],12 µL/min/1e6 cells
same,hepatocyte CLint,[4],15.5 µL/min/1e6 cells
same,clearance,[6],3.83 mL/min/kg
same,half-life,[7],246 min
CC[C@@H](CS(=O)(=O)CC(C)(C)C)N1C(=O)[C@@H](CC(=O)O)O[C@H](c2cccc(Cl)c2)[C@H]1c1ccc(Cl)cc1,hepatocyte CLint,[5],8.6 µL/min/1e6 cells
CC[C@@H](CS(=O)(=O)C1CCCC1)N1C(=O)[C@@H](CC(=O)O)O[C@H](c2cccc(Cl)c2)[C@H]1c1ccc(Cl)cc1,hepatocyte CLint,[5],12 µL/min/1e6 cells
CC[C@@H](CS(=O)(=O)c1ccccc1)N1C(=O)[C@@H](CC(=O)O)O[C@H](c2cccc(Cl)c2)[C@H]1c1ccc(Cl)cc1,hepatocyte CLint,[5],10 µL/min/1e6 cells
CC[C@@H](CS(=O)(=O)N(C)C)N1C(=O)[C@@H](CC(=O)O)O[C@H](c2cccc(Cl)c2)[C@H]1c1ccc(Cl)cc1,hepatocyte CLint,[5],19 µL/min/1e6 cells
CC[C@@H](CS(=O)(=O)C1COC1)N1C(=O)[C@@H](CC(=O)O)O[C@H](c2cccc(Cl)c2)[C@H]1c1ccc(Cl)cc1,hepatocyte CLint,[5],6.6 µL/min/1e6 cells
C[C@@H](CS(=O)(=O)C(C)(C)C)N1C(=O)[C@@H](CC(=O)O)O[C@H](c2cccc(Cl)c2)[C@H]1c1ccc(Cl)cc1,hepatocyte CLint,[5],0.7 µL/min/1e6 cells
CC(C)(C)S(=O)(=O)C[C@H](CC(F)(F)F)N1C(=O)[C@@H](CC(=O)O)O[C@H](c2cccc(Cl)c2)[C@H]1c1ccc(Cl)cc1,hepatocyte CLint,[5],4.7 µL/min/1e6 cells
same,clearance,[6],7.17 mL/min/kg
same,half-life,[7],240 min
CC(C)[C@@H](CS(=O)(=O)C(C)(C)C)N1C(=O)[C@@H](CC(=O)O)O[C@H](c2cccc(Cl)c2)[C@H]1c1ccc(Cl)cc1,hepatocyte CLint,[5],1.7 µL/min/1e6 cells
same,clearance,[6],1.83 mL/min/kg
same,half-life,[7],360 min
CC(C)(C)[C@@H](CS(=O)(=O)C(C)(C)C)N1C(=O)[C@@H](CC(=O)O)O[C@H](c2cccc(Cl)c2)[C@H]1c1ccc(Cl)cc1,hepatocyte CLint,[5],2.1 µL/min/1e6 cells
CC(C)(C)S(=O)(=O)C[C@H](C1CC1)N1C(=O)[C@@H](CC(=O)O)O[C@H](c2cccc(Cl)c2)[C@H]1c1ccc(Cl)cc1,hepatocyte CLint,[5],1 µL/min/1e6 cells
same,hepatocyte CLint,[8],3 µL/min/1e6 cells
same,hepatocyte CLint,[9],6 µL/min/1e6 cells
same,hepatocyte CLint,[4]; read-out: CLH,13 µL/min/1e6 cells
same,clearance,[6],5.83 mL/min/kg
same,half-life,[7],342 min
same,Drug metabolism,[10],metabolite_detected
same,Drug metabolism,[11],metabolite_detected
same,Drug metabolism,[12],metabolite_notdetected
same,Drug metabolism,[13],metabolite_detected
same,Drug metabolism,[14],metabolite_notdetected
same,Drug metabolism,[15],metabolite_detected
same,Drug metabolism,[16],metabolite_detected
same,Drug metabolism,[17],metabolite_notdetected
same,Drug metabolism,[18],metabolite_detected
same,Drug metabolism,[19],metabolite_notdetected
